Among the data in patent US9732070B2, “Protein kinase C inhibitors and uses thereof” (Rigel Pharmaceuticals, Inc., priority 2009, dated 2017) are IC50 values, retold here.

One assay relates to Human primary T cells. The assay can be described thus: IL-2 ELISA, human primary T cell, anti-CD3+CD28 stimulation. It counts as cell-based. The conditions noted are these: IL-2 quantified by ELISA; human primary T cells stimulated with αCD3 and αCD28, 24 hours. The procedure:
Human primary T cell isolation and culture: Human primary T cells were prepared as follows. Whole blood was obtained from a healthy volunteer, mixed 1:1 with PBS, layered on to Ficoll Hypaque (Amersham Pharmacia Biotech, Piscataway, N.J., Catalog #17-1440-03) in 2:1 blood/PBS:ficoll ratio and centrifuged for 30 minutes at 4° C. at 1750 rpm. The cells at the serum: ficoll interface were recovered and washed twice with 5 volumes of PBS. These freshly isolated human peripheral blood mononuclear cells were cultured in Yssel's medium containing 40 U/mL IL2 in a flask pre-coated with 1 μg/mL αCD3 and 5 μg/mL αCD28 (Anti-Human CD3, BD Pharmingen Catalog #555336, Anti-Human CD28, Beckman Coulter Catalog #IM1376). The cells were stimulated for 3-4 days, then transferred to a fresh flask and maintained in RPMI (RPMI-1640 with L-Glutamine; Mediatech, Inc., Herndon Va., cat. #10-040-CM) with 10% FBS and 40 U/mL IL-2. The primary T-cells were then washed twice with PBS to remove the IL-2.
Primary T cell stimulation and IL2 ELISA: Human primary T cells (100,000 cells per well) were pre-incubated with or without test compound in Yssel's medium for 1 hour at 37° C. Cells were then stimulated by transferring them to round-bottom 96-well plates pre-coated with 1 μg/ml αCD3 and 5 μg/ml αCD28. For counter assay, cells were instead stimulated by adding 8× stock solutions of PMA and ionomycin in Yssels (for final concentrations of 0.5 ng/ml PMA and 0.1 uM ionomycin, both from Calbiochem). Cells were incubated at 37° C. for 24 hours before 100 μL supernatants were harvested for quantification of IL-2 by ELISA using Human IL-2 Duoset ELISA Kit from R and D Systems, Cat. # DY202E.
(In general: ELISA stands for enzyme-linked immunosorbent assay.)
As to `CC(C)Oc1c(-n2nnn(C)c2=O)cc(Nc2ncc(F)c(NC3CC(C)(C)NC(C)(C)C3)n2)cc1C(F)(F)F` [I-51, N2-(4-isopropoxy-3-(4-methyl-4,5-dihysro-5-oxo-1H-tetrazol-1-yl)-5-trifluoromethylphenyl)-5-fluoro-N4-(2,2,6,6-tetramethylpiperidin-4-yl)pyrimidine-2,4-diamine], the IC50 (usually the concentration that gives 50% inhibition) was < 0.5 µM.

Still in this assay, the particulars now being: T-cell; IL-2 quantified by ELISA; human primary T cells stimulated with αCD3 and αCD28, 24 hours.
Regarding `Cn1nnn(-c2cc(Nc3ncc(F)c(NC4CC(C)(C)NC(C)(C)C4)n3)ccc2OC2COC2)c1=O` [I-21, 1-(5-(4-(2,2,6,6-gtetramethylpiperidin-4-ylamino)-5-fluoropyrimidin-2-ylamino)-2-(oxetan-3-yloxy)phenyl)-4-methyl-1H-tetrazol-5(4H)-one], the IC50 was < 0.5 µM.

Take `Cn1nnn(-c2cc(Nc3ncc(F)c(NC4CC(C)(C)NC(C)(C)C4)n3)cc(C(F)(F)F)c2)c1=O` [I-48, N2-(3-(4-methyl-4,5-dihydro-5-oso-1H-tetrazol-1-yl)-5-trifluoromethylphenyl)-5-fluoro-N4-(2,2,6,6-tetramethylpiperidin-4-yl)pyrimidine-2,5-diamine]: the half-inhibitory concentration (IC50) was < 0.5 µM.

Regarding `CN1C(C)(C)CC(Nc2nc(Nc3cc(C4CC4)cc(-n4nnn(C)c4=O)c3)ncc2F)CC1(C)C` [I-36, N2-{5-cyclopropyl-[3-(4-methyl)-1,2,3,4-tetrazol-5-one-1-yl]}phenyl-5-fluoro-N4-(1,2,2,6,6-pentamethylpiperidin-4-yl)-2,4-pyrimidinediamine], the 50% inhibitory concentration (IC50) is < 0.5 µM.

For the compound `Cc1c(Cl)cc(Nc2ncc(F)c(NC3CC(C)(C)NC(C)(C)C3)n2)cc1-n1nnn(C)c1=O` [I-55, N2-(5-chloro-4-methyl-3-(4-methyl-4,5-dihysro-5-oxo-1H-tetrazol-1-yl)phenyl)-5-fluoro-N4-(2,2,6,6-tetramethylpiperidin-4-yl)pyrimidine-2,4-diamine], the 50% inhibitory concentration (IC50) is < 0.5 µM.

Take `Cn1nnn(-c2cc(Nc3ncc(C#N)c(NC4CC(C)(C)NC(C)(C)C4)n3)cc(C(F)(F)F)c2C2CC2)c1=O` [I-41, 5-cyano-N2-{4-cyclopropyl-5-trifluoromethyl-[3-(4-methyl)-1,2,3,4-tetrazol-5-one-1-yl]}phenyl-N4-(2,2,6,6-tetramethylpiperidin-4-yl)-2,4-pyrimidinediamine]: the IC50 was < 0.5 µM.

For the compound `CN1C(C)(C)CC(Nc2nc(Nc3cccc(-n4nnn(C)c4=O)c3)ncc2F)CC1(C)C` [I-12, 5-fluoro-n2-[3-(4-methyl)-1,2,3,4-tetrazol-5-one-1-yl]phenyl-n4-(1,2,2,6,6-pentamethylpiperidin-4-yl)-2,4-pyrimidinediamine], the IC50 lay within 0.51 to 2.99 µM.

`Cn1nnn(-c2cc(Nc3ncc(C(N)=O)c(NC4CC(C)(C)NC(C)(C)C4)n3)cc(F)c2C2CC2)c1=O` [I-57, N2-(4-cyclopropyl-5-fluoro-3-(4-methyl-4,5-dihydro-5-oxo-1H-tetrazol-1-yl)phenyl)-N4-(2,2,6,6-tetramethylpiperidin-4-yl)pyrimidine-2,4-diamino-5-carboxyamide]: the IC50 is < 0.5 µM.

As to `Cn1nnn(-c2cc(Nc3ncc(F)c(NC4CC(C)(C)NC(C)(C)C4)n3)cc(C3CC3)c2)c1=O` [I-35, N2-{5-cyclopropyl-[3-(4-methyl)-1,2,3,4-tetrazol-5-one-1-yl]}phenyl-5-fluoro-N4-(2,2,6,6-tetramethylpiperidin-4-yl)-2,4-pyrimidinediamine], the half-inhibitory concentration (IC50) was < 0.5 µM.

Turning to `Cn1nnn(-c2cc(Nc3ncc(F)c(NC4CC(C)(C)NC(C)(C)C4)n3)ccc2F)c1=O` [I-4], the IC50 was < 0.5 µM.

For the compound `Cn1nnn(-c2cc(Nc3ncc(F)c(NC4CC(C)(C)NC(C)(C)C4)n3)cc(C3CC3)c2F)c1=O` [I-43, N2-{5-cyclopropyl-4-fluoro-[3-(4-methyl)-1,2,3,4-tetrazol-5-one-1-yl]}phenyl-5-fluoro-N4-(2,2,6,6-tetramethylpiperidin-4-yl)-2,4-pyrimidinediamine], the IC50 is < 0.5 µM.

For the compound `CN1C(C)(C)CC(Nc2nc(Nc3cc(-n4nnn(C)c4=O)cc(C(F)(F)F)c3)ncc2F)CC1(C)C` [I-47, N2-(3-(4-methyl-4,5-dihydro-5-oxo-1H-tetrazol-1-yl)-5-trifluoromethylphenyl)-5-fluoro-N4-(1,2,2,6,6-pentamethylpiperidin-4-yl)pyrimidine-2,4-diamine], the IC50 is < 0.5 µM.

Regarding `Cn1nnn(-c2cc(Nc3ncc(C#N)c(NC4CC(C)(C)NC(C)(C)C4)n3)cc(C3CC3)c2F)c1=O` [I-44, 5-cyano-N2-{5-cyclopropyl-4-fluoro-[3-(4-methyl)-1,2,3,4-tetrazol-5-one-1-yl]}phenyl-N4-(2,2,6,6-tetramethylpiperidin-4-yl)-2,4-pyrimidinediamine], the IC50 is < 0.5 µM.

Regarding `Cc1ccc(Nc2ncc(F)c(NC3CC(C)(C)N(C)C(C)(C)C3)n2)cc1-n1nnn(C)c1=O` [I-8, 5-fluoro-n2-{4-methyl-[3-(4-methyl)-1,2,3,4-tetrazol-5-one-1-yl]}phenyl-n4-(1,2,2,6,6-pentamethylpiperidin-4-yl)-2,4-pyrimidinediamine], the IC50 was < 0.5 µM.

Consider `Cc1cc(Nc2ncc(F)c(NC3CC(C)(C)NC(C)(C)C3)n2)cc(-n2nnn(C)c2=O)c1C` [I-46, N2-(4,5-dimethyl-3-(4-methyl-4,5-dihydro-5-oxo-1H-tetrazol-1-yl)phenyl)-5-fluoro-N4-(2,2,6,6-tetramethylpiperidin-4-yl)pyrimidine-2,4-diamine], for which the IC50 was < 0.5 µM.
